Experiments:
[1] = tested on: porcine brain endothelial cells (PBECs); conditions: apical to basal, P.1 PBEC; line through passive compounds R^2=0.96
Description: Permeability assays were performed on cell monolayers with TEER >500 Ω cm^2. […] At t=5 min, the inserts were transferred to the next well containing donor buffer. This procedure was repeated for all inserts at t=15 min and t=30 min. At the end of the experiment, samples were taken from each insert and well to scintillation vials. OptiPhase HiSafe 2 scintillation liquid was added to each vial and radioactivity was counted using a Canberra Packard Tricarb 1900 TR Liquid Scintillation Analyser.
Cleared volume was calculated using the following equation and plotted as a function of time:(1) Clearedvolume(μl)=MR(dpm)/CD(dpm/μl) where is the MR=amount of radio-labelled compound in the receiver compartment, dpm=disintegrations per minute, CD=concentration of the compound in the donor compartment.
All dpm values were corrected for background dpm. The slope of the clearance curve was obtained by linear regression and represents the PS (i.e. permeability × surface area) product. Apparent permeability (Papp, cm/s) was calculated using the following equation:(2) Papp(cm/s)=PSproduct(cm^3/s)/surfaceareaoftheinsert(cm^2)
The apparent permeability Papp was calculated according to Eq. (2) and plotted against the calculated Log Poctanol as a measure of lipophilicity of the compound.

[2] = tested on: cEND (an immortalised mouse brain endothelial cell line); set-up: method as in Förster et al. (2005); conditions: cEND cells treated with hydrocortisone; ref Förster et al. (2005); cited from earlier work
[3] = tested on: hCMEC/D3, immortalised human brain microvascular endothelial cells; set-up: method as in Förster et al., 2008; conditions: hCMEC/D3 treated with hydrocortisone; ref Förster et al., 2008; cited from earlier work

Row | SMILES | Papp relative to the line of Papp vs. calculated Log Poctanol [1] | other results
1 | Cn1c(=O)c2c(ncn2C)n(C)c1=O [caffeine] | clear outliers above the line | 
2 | CC[C@]1(O)C[C@@H]2CN(CCc3c([nH]c4ccccc34)[C@@](C(=O)OC)(c3cc4c(cc3OC)N(C)[C@H]3[C@@](O)(C(=O)OC)[C@H](OC(C)=O)[C@]5(CC)C=CCN6CC[C@]43[C@@H]65)C2)C1 [vinblastine] | clear outliers below the line | 
3 | CC(C)C[C@H](N)C(=O)O [Leucine, L-leucine] | clear outliers above the line | 
4 | C=CCN1CC[C@]23c4c5ccc(O)c4O[C@H]2C(=O)CC[C@@]3(O)[C@H]1C5 [naloxone] | linear function of calculated Log Poctanol | 
5 | CC(C)NCC(O)COc1cccc2ccccc12 (stereo not drawn) [propranolol] | linear function of calculated Log Poctanol | 
6 | N[C@@H](CCC(=O)O)C(=O)O [glutamate, L-glutamic acid] | clear outliers below the line | 
7 | C[C@]12CCC(=O)C=C1CC[C@@H]1[C@@H]2[C@@H](O)C[C@@]2(C)[C@H]1CC[C@]2(O)C(=O)CO [hydrocortisone] |  | increase in TEER [2]: threefold; increase in TEER [3]: three-fold; increase in expression of occludin and claudin-5 [3]: over twofold
